Experimental findings from ChEMBL document CHEMBL1130015, “Cardioselective antiischemic ATP-sensitive potassium channel (KATP) openers. 5. Identification of 4-(N-aryl)-substituted benzopyran derivatives with high selectivity” (J Med Chem, 1997) are described below.

For data set [1], the species on record is Rattus norvegicus. Nature of the data set: Ratio of the EC25 value for time to contracture and IC50 value for vasorelaxant potency indicates selectivity in vitro for the ischemic myocardium. In kind it is functional.
Data set [2] is filed under the species Rattus norvegicus. Nature of the data set: Antiischemic potency is determined by EC25 value for increase in time to the onset of contracture in globally ischemic isolated perfused rat hearts. It counts as functional.
The species entered for data set [3] is Rattus norvegicus. The experiment in a line: Percent increase in cardio protective activity at concentration of 10 uM. It counts as functional, Heart.
For data set [4], the species on record is Rattus norvegicus. Nature of the data set: Vasorelaxant potency determined by measurement of IC50 value for relaxation of rat aorta precontracted with methoxamine. It counts as functional.
Data set [5] in a line: Maximum plasma concentration following oral administration of 30 umol/kg. It counts as ADME, organism-based. The arrangement: dose 30 umol/kg, route oral.
Data set [6] in a line: Pharmacokinetic parameter Tmax following oral administration of 30 umol/kg. It counts as ADME, organism-based. The settings on record: in vivo.
Data set [7] in a line: Apparent terminal elimination half life in rats. Particulars: rat, in vivo. It counts as ADME, organism-based.
A short description of data set [8]: Oral bioavailability in rats was determined in vivo. In kind it is ADME, organism-based. The settings on record: rat, read-out: Bioavailabiility.

The EC25 is the concentration at which the effect reaches the 25% level. Low readings indicate greater potency, high ones weaker potency. For the compound `CC1(C)Oc2ccc(C#N)cc2[C@@H](N2CCCC2=O)[C@@H]1O` [CROMAKALIM], the Ratio in data set [1] worked out at 278. The compound further had an EC25 in data set [2] of 8.9 µM.
What is called IC50 is the concentration at which inhibition is half-maximal. Turning to `CC(=O)NCCN(c1ccccc1)[C@H]1c2cc(C#N)ccc2OC(C)(C)[C@@H]1O`, the Increase in data set [3] is recorded as 5%. The compound further returned an IC50 in data set [4] of more than 30 µM.
Compound `Cc1cc(CN(c2ccccc2)[C@H]2c3cc(C#N)ccc3OC(C)(C)[C@@H]2O)on1` returned an Increase in data set [3] of 11%. Besides, the IC50 in data set [4] was more than 30 µM.
Consider `CCOC(=O)CCN(c1ccccc1)[C@H]1c2cc(C#N)ccc2OC(C)(C)[C@@H]1O`, for which, in data set [3], the Increase turned out to be 26%. The same compound returned an IC50 in data set [4] of 54 µM.
`CCOC(=O)CN(c1ccccc1)[C@@H]1c2cc(C#N)ccc2OC(C)(C)[C@H]1O` [listing 1 of 2 here] yielded an Increase in data set [3] of 5%. This compound showed an IC50 in data set [4] of more than 30 µM.
Consider `CCOP(=O)(CN(c1ccc(F)cc1)[C@H]1c2cc(C#N)ccc2OC(C)(C)[C@@H]1O)OCC`, for which the Ratio in data set [1] stood at 0.104. This compound also showed an EC25 in data set [2] of 4.9 µM. Also, half-maximal inhibition in data set [4] (IC50) required 47 µM.
For `CCOC(=O)CN(c1ccc(Cl)cc1)[C@H]1c2cc(C#N)ccc2OC(C)(C)[C@@H]1O` the same measures were less than 0.22, 6.5 µM and more than 30 µM.
Take `CC1(C)Oc2ccc(C#N)cc2[C@H](N(CCS(C)(=O)=O)c2ccccc2)[C@H]1O`: in data set [3], the Increase is 0%. This compound returned an IC50 in data set [4] of 27 µM.
In the case of `CC1(C)Oc2ccc(C#N)cc2[C@H](N(Cc2ncc[nH]2)c2ccc(F)cc2)[C@H]1O`, the Ratio in data set [1] turned out to be 0.11. In addition, the EC25 in data set [2] is 3.3 µM. For the same compound, the 50% inhibitory concentration (IC50) in data set [4] is more than 30 µM.
Turning to `CCOC(=O)CN(c1ccccc1)[C@H]1c2cc(C#N)ccc2OC(C)(C)[C@@H]1O`, the Ratio in data set [1] was less than 0.07. Further, the EC25 in data set [2] is 2.2 µM. In data set [3], this compound yielded an Increase of 38%. The same compound displayed an IC50 in data set [4] of more than 30 µM.
Turning to `CCOC(=O)NN(c1ccccc1)[C@H]1c2cc(C#N)ccc2OC(C)(C)[C@@H]1O`, the Ratio in data set [1] was 1.95. The compound further came in with an EC25 in data set [2] of 4.3 µM. Moreover, the midpoint of inhibition in data set [4], the IC50, lay at 2.2 µM.
Take `CC1(C)Oc2ccc(C#N)cc2[C@@H](/N=C(\NC#N)Nc2ccc(Cl)cc2)[C@@H]1O`: the Ratio in data set [1] is given as 1.4. In data set [2], this compound had an EC25 of 2.5 µM.
`CCOC(=O)CCCN(c1ccccc1)[C@H]1c2cc(C#N)ccc2OC(C)(C)[C@@H]1O` showed an EC25 in data set [2] of 5.7 µM. This compound yielded an IC50 in data set [4] of more than 30 µM.
`CCCCOC(=O)CN(c1ccccc1)[C@H]1c2cc(C#N)ccc2OC(C)(C)[C@@H]1O` yielded an Increase in data set [3] of 8%. For the same compound, the IC50 in data set [4] came out at 27 µM.
In the case of `COCCN(c1ccccc1)[C@H]1c2cc(C#N)ccc2OC(C)(C)[C@@H]1O`, in data set [3], the Increase turned out to be 15%. Besides, in data set [4], the IC50 is more than 30 µM.
The compound `CCOC(=O)CN(c1nc2ccccc2o1)[C@H]1c2cc(C#N)ccc2OC(C)(C)[C@@H]1O` came in with an Increase in data set [3] of 0%. This compound also returned an IC50 in data set [4] of more than 30 µM.
The matching figures for `CCNC(=O)CN(c1ccccc1)[C@H]1c2cc(C#N)ccc2OC(C)(C)[C@@H]1O`: 21% and more than 30 µM.
On to `CC1(C)Oc2ccc(C#N)cc2[C@H](N(Cc2ccco2)c2ccccc2)[C@H]1O`, for which the Ratio in data set [1] is 0.27. This compound registered an EC25 in data set [2] of 3.2 µM. Also, in data set [4], half-maximal inhibition (IC50) was put at 12 µM.
In the case of `COC(=O)c1cc2ccccc2n1[C@@H]1c2cc(C#N)ccc2OC(C)(C)[C@H]1O`, in data set [1], the Ratio was found to be 0.25. Besides, the EC25 in data set [2] was 8.1 µM.
In the case of `CCOC(=O)CN(c1ccccc1)[C@@H]1c2cc(C#N)ccc2OC(C)(C)[C@H]1O` [listing 2 of 2 here], the Ratio in data set [1] was less than 0.17. The compound also had an EC25 in data set [2] of 4.7 µM. For the same compound, the IC50 in data set [4] is more than 30 µM.
The matching figures for `CCOC(=O)CN(c1nc(C)cs1)[C@H]1c2cc(C#N)ccc2OC(C)(C)[C@@H]1O`: less than 0.09, 7.8 µM and 84 µM.
A word on the Cmax: it is the highest concentration seen after dosing. Broadly, the Tmax is the time at which the peak concentration occurs. As usually defined, the half-life is how long it takes for the measured level to halve. Take `CC1(C)Oc2ccc(C#N)cc2[C@H](N(Cc2ncc[nH]2)c2ccc(Cl)cc2)[C@H]1O` [BMS-191095]: in data set [1], the Ratio is recorded as less than 0.05. This compound also yielded a peak concentration (Cmax) in data set [5] of 1300 nM. This compound yielded an EC25 in data set [2] of 1.4 µM. The Tmax in data set [6] was 1.9 h. Moreover, in data set [7], the half-life was 3 h. Moreover, the concentration for half-maximal inhibition (IC50) in data set [4] was more than 30 µM. Further, the bioavailability in data set [8] turned out to be 47%.
With `CC1(C)Oc2ccc(C#N)cc2[C@H](N(Cc2ncc[nH]2)c2ccccc2)[C@H]1O`, the Ratio in data set [1] was less than 0.14. Further, the EC25 in data set [2] is 4.3 µM. For the same compound, the IC50 in data set [4] was more than 30 µM.
In data set [3], `CCOC(=O)C(=O)N(c1ccc(F)cc1)[C@H]1c2cc(C#N)ccc2OC(C)(C)[C@@H]1O` yielded an Increase of 0%. In data set [4], this compound gave an IC50 of 43 µM.
The matching figures for `CC1(C)Oc2ccc(C#N)cc2[C@H](N(CC(=O)O)c2ccccc2)[C@H]1O`: 0% and more than 100 µM.
`CC1(C)Oc2ccc(C#N)cc2[C@@H](N(Cc2ncc[nH]2)c2ccc(Cl)cc2)[C@@H]1O` returned an Increase in data set [3] of 14%. The IC50 in data set [4] was more than 30 µM.
For `CC1(C)Oc2ccc(C#N)cc2[C@H](N(Cc2ncco2)c2ccccc2)[C@H]1O`, in data set [1], the Ratio is less than 0.18. Besides, the EC25 in data set [2] stood at 5.3 µM. In data set [4], this compound registered an IC50 of more than 30 µM.
Turning to `CC1(C)Oc2ccc(C#N)cc2[C@H](Nc2ccccc2)[C@H]1O`, the Ratio in data set [1] was 3.9. The compound further registered an EC25 in data set [2] of 3.9 µM.
Take `CCOC(=O)CN(c1ccc(F)cc1)[C@H]1c2cc(C#N)ccc2OC(C)(C)[C@@H]1O`: in data set [1], the Ratio is less than 0.017. Moreover, the EC25 in data set [2] was found to be 3.8 µM. The same compound showed an IC50 in data set [4] of more than 30 µM.
The matching figures for `Cc1noc(CN(c2ccccc2)[C@H]2c3cc(C#N)ccc3OC(C)(C)[C@@H]2O)n1`: less than 0.33, 10 µM and more than 30 µM.
In data set [3], `CC1(C)Oc2ccc(C#N)cc2[C@H](N(CC#N)c2ccccc2)[C@H]1O` came in with an Increase of 8%. This compound also yielded an IC50 in data set [4] of 59 µM.
